Data on one compound can be found in BindingDB's records for doi:10.1021/jm970414b (University of Michigan, 1997).

The experiment concerns the target Glutathionylspermidine synthetase/amidase (Escherichia coli) (UniProt P0AES0). As to the kind of experiment: Inhibition of Glutathionylspermidine synthetase from Escherichia coli, value taken from literature.

A word on the Ki: it is the dissociation constant of the complex between target and ligand, obtained from inhibition or displacement. A lower Ki goes with a stronger hold on the target.

Chain of Glutathionylspermidine synthetase/amidase (Escherichia coli) (P0AES0 whole entry, looked up): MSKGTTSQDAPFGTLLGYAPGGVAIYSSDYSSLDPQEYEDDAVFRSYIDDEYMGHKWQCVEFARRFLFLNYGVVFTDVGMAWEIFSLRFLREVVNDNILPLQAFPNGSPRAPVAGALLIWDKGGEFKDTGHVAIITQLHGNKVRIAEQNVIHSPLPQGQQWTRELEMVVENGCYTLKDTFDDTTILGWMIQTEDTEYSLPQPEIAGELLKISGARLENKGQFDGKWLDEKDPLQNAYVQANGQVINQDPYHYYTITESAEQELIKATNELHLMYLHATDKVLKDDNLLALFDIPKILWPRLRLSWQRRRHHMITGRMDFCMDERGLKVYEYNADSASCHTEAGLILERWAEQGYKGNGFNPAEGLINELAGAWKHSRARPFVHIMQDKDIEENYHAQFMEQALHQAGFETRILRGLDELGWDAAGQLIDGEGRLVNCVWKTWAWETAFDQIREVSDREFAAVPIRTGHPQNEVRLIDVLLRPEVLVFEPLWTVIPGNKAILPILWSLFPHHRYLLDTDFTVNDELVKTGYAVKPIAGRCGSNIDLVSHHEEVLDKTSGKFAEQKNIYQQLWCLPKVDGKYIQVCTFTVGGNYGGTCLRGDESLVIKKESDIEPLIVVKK

In the case of `C[C@H](NC(=O)CC[C@H](N)C(=O)O)C(=O)NCP(=O)(O)OCCCNCCCCN` [2-Amino-4-[1-({[3-(4-amino-butylamino)-propoxy]-hydroxy-phosphorylmethyl}-carbamoyl)-ethylcarbamoyl]-butyric acid], the Ki turned out to be 14 µM. This lies in the double-digit micromolar range.
